Key:
[1] = test system: Gi coupling of GnRHR (FSK-stimulated cAMP); experiment: Inhibition of FSK-stimulated cAMP in HEK293/rGnRHR cells; assay type: cell-based, rat; settings: unpublished results
Excerpt: However, we agree with the general view that PLC, representing the classical Gq-initiated pituitary signalling pathway, is not a relevant component of the apoptotic cascade.

[2] = test system: PARP cleavage in HEK293/rGnRHR cells; experiment: Time-course of PARP cleavage (apoptosis), western blot; assay type: cell-based, rat; settings: 100 nM
Protocol: (§1) We investigated whether the growth suppression caused by GnRH on HEK293 cells expressing the rat receptor was due to an inhibition of cell proliferation or an induction of apoptosis. On the one hand, we used radioactive thymidine incorporation into the genome to track cell proliferation over a period of 96 h. […] On the other hand, we measured apoptosis by monitoring cleavage of poly[ADP-ribose]polymerase (PARP), a substrate of caspase 3. […] The increase of cleaved PARP in the cytoplasm was proportional to the increase of cleaved PARP in the nucleus (data not shown), so we routinely only examined clarified whole-cell lysates for technical ease.

[3] = molecular target: T1, rat GnRH receptor (Rattus norvegicus, UniProt P30969); experiment: Accumulation of total inositol phosphates (PLCβ activation) in HEK293/rGnRHR cells; assay type: cell-based
T1 construct: expressed in transfected cells
T1 sequence (P30969 1-327): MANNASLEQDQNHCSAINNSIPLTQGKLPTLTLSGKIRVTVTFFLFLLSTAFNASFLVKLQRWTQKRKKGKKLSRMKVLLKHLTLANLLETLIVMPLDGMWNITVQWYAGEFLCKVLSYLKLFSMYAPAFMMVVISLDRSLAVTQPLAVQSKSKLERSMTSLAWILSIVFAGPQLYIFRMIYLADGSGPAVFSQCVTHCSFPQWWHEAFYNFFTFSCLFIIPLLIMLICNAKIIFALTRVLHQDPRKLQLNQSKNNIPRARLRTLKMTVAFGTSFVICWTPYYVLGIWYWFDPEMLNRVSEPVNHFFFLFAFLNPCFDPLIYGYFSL
Protocol: HEK293 cells stably expressing the GnRH receptor growing on 12-well PLL-coated plates were pre-labelled with 1 μCi/ml myo-[H3]inositol (Amersham) in inositol-free DMEM (Sigma) for 48 h. On the day of the experiment, cells were washed with assay buffer (140 mM NaCl, 20 mM HEPES, 8 mM glucose, 4 mM KCl, 1 mM MgCl2, 1 mM CaCl2, 1 mg/ml BSA), pre-incubated with 10 mM LiCl (in assay buffer) for 30 min, and stimulated with different concentrations of the peptides (in the same buffer) for 1 h at 37° C. Incubations were terminated by removing the culture medium and lysing the cells in ice cold 10 mM formic acid for 30 min. Inositol phosphates were extracted by chromatography with an anion exchange resin (AG® 1-X8, Bio-Rad) using 1 M ammonium formate and 0.1 M formic acid. Liquid scintillant was added to the final eluate and [3H]inositol phosphates were measured in the β-counter.
(§2) Bar graphs and curves were obtained using Prism 3.0 (GraphPad Software, Inc.: San Diego, Calif., USA). IC50 and EC50 values were determined by non-linear regression analysis. Curves were best-fitted to a one-site model. […] Values were normalised as specified in the figure legends.

[4] = test system: HEK293 cells expressing human GnRHR with catfish GnRHR tail or rat GnRHR with TRHR tail; experiment: Cell growth after five days of GnRH I in HEK293 cells expressing tailed chimeric receptors; assay type: cell-based; settings: five days of continuous treatment
Protocol: Trypan Blue-excluding cells were then counted with a haemocytometer. For the second method, cells were seeded into 96-well plates at 5,000 cells (in 100 μl)/well and treated exactly as described before. 10 μl WST-1 reagent (Roche Diagnostics Ltd.; Lewes, East Sussex, UK) was added directly to each well and, after 3 h at 37° C., absorbance was read at 450 nm (with a reference at 690 nm) against a background control as blank using a microplate ELISA reader. To the best of our knowledge, the ability to inhibit the growth of cells expressing its cognate receptor is a property only clearly described for GnRH, Since the type I GnRH receptor (GnRHR) is the only G protein-coupled receptor lacking an intracellular C-terminal tail, we hypothesized that the cell growth suppression ability of GnRH was conferred by this unique feature of the GnRHR. […] We were unable to detect growth suppression of wild-type HEK293 cells, which endogenously express adrenergic, LPA and endothelin receptors, treated with their corresponding agonists (data not shown). The expression of all receptors mentioned was confirmed by binding assays or western blotting (data not shown).

[5] = test system: HEK293 cells over-expressing the catfish GnRHR or the TRHR; experiment: Cell growth in HEK293 cells over-expressing the catfish GnRHR or the TRHR; assay type: cell-based; settings: data not shown
Protocol: (§3) For the first method, HEK293 cells expressing various GnRH receptor constructs were seeded into 12-well PLL-coated plates at 50,000 cells (in 1 ml)/well and cultured with continuous GnRH exposure for five days, adding fresh peptide every day. Trypan Blue-excluding cells were then counted with a haemocytometer. For the second method, cells were seeded into 96-well plates at 5,000 cells (in 100 μl)/well and treated exactly as described before. 10 μl WST-1 reagent (Roche Diagnostics Ltd.; Lewes, East Sussex, UK) was added directly to each well and, after 3 h at 37° C., absorbance was read at 450 nm (with a reference at 690 nm) against a background control as blank using a microplate ELISA reader.
To the best of our knowledge, the ability to inhibit the growth of cells expressing its cognate receptor is a property only clearly described for GnRH, Since the type I GnRH receptor (GnRHR) is the only G protein-coupled receptor lacking an intracellular C-terminal tail, we hypothesized that the cell growth suppression ability of GnRH was conferred by this unique feature of the GnRHR. […] We were unable to detect growth suppression of wild-type HEK293 cells, which endogenously express adrenergic, LPA and endothelin receptors, treated with their corresponding agonists (data not shown). The expression of all receptors mentioned was confirmed by binding assays or western blotting (data not shown).

[6] = test system: ERK1/2 phosphorylation in HEK293 cells expressing rat GnRHR or rat GnRHR/TRHR chimera; experiment: ERK activation profile, western blot with anti-phosphorylated ERK1/2; assay type: cell-based; settings: 100 nM, rat GnRHR versus rat GnRHR/TRHR chimera
Excerpt: We decided to investigate if this lack of rapid desensitisation holds true for other responses that may be more pertinent for the antiproliferative/apoptotic properties of GnRH.

[7] = test system: HEK293/rGnRHR cells; experiment: Thymidine incorporation assay; assay type: cell-based, rat; settings: 100 nM, continuous treatment, over 96 h
Protocol: Medium of cells growing on 24-well PLL-coated plates was removed and 0.5 μCi [3H]thymidine (Amersham) in complete fresh medium was added to each well. After an overnight incubation, the medium was removed, the cells washed three times with 1 ml PBS and left for […] at room temperature in 0.5 ml 0.1 N NaOH. The extract was then transferred to a scintillation vial, 2 ml of Optiphase “HiSafe 3” cocktail (PerkinElmer) added and 3H counts measured in a liquid scintillation 1450 Wallac MicroBeta® TriLux counter.
as §1

[8] = test system: HEK293/hGnRHR cells; experiment: Cell growth inhibition (viable cell number after 5 days of continuous treatment) in HEK293/hGnRHR cells; assay type: cell-based, human; settings: human receptor
Protocol: as §3, §2
(§4) Antiproliferation/apoptosis was estimated by determining cell number after five days of continuous exposure to the peptides. In parallel, this response was compared to the classical Gq coupled-PLCβ activation induced by GnRH peptides, as measured by the very well characterized inositol phosphates accumulation protocol. Both outputs were determined in two HEK293 cell lines; one expressing the rat receptor and the other expressing the human receptor. The human cell line was included in the study because this species may be clinically more relevant and the very low receptor expression may better reflect the in vivo tumoural state. In fact, due to poor binding, the precise affinity of the analogues on this cell line could not be determined.

[9] = test system: HEK293/rGnRHR cells; experiment: Cell growth inhibition (viable cell number after 5 days of continuous treatment) in HEK293/rGnRHR cells; assay type: cell-based, rat; settings: rat receptor
Protocol: as §3, §2, §4

| Substance | inhibition of FSK-stimulated cAMP [1] | time after first treatment at which PARP cleavage (apoptosis) is manifest [2] | fold more potent to activate PLCβ than GnRH II [3] | effect of GnRH I on cell growth of cell lines expressing the chimeras [4] | inhibition of cell growth [5] | duration of ERK activation [6] | DNA replication (thymidine incorporation) compared to untreated cells [7] | fold more potent than GnRH I to induce cell death / inhibit cell growth [8] | fold more potent than GnRH I to induce cell death / inhibit cell growth [9] |
| --- | --- | --- | --- | --- | --- | --- | --- | --- | --- |
| pGlu-His-Trp-Ser-Tyr-Gly-Leu-Arg-Pro-Gly.NH2 [GnRH I] | did not detect | at least 48 h | 4.7 fold | Addition of the C-terminal tails inhibited the effect | did not inhibit the growth | more sustained in the cells expressing the receptors lacking the C-terminal tail | reduced DNA replication | – | – |
| pGlu-His-Trp-Ser-His-Gly-Trp-Tyr-Pro-Gly.NH2 (EHWSHGWYPG; HELM PEPTIDE1{[Glp].H.W.S.H.G.W.Y.P.G.[am]}$$$$V2.0; SMILES NC(=O)CNC(=O)[C@@H]1CCCN1C(=O)[C@H](Cc1ccc(O)cc1)NC(=O)[C@H](Cc1c[nH]c2ccccc12)NC(=O)CNC(=O)[C@H](Cc1c[nH]cn1)NC(=O)[C@H](CO)NC(=O)[C@H](Cc1c[nH]c2ccccc12)NC(=O)[C@H](Cc1c[nH]cn1)NC(=O)[C@@H]1CCC(=O)N1) [GnRH II, human gonadotropin-releasing hormone II, purchased from Sigma-Aldrich] | did not detect | 24 h | – | – | – | – | reduced DNA replication | 6.7 fold | 13.0 fold |

Reference: US9388216B2, “Methods of treating reproductive cancer” (Medical Research Council, priority 2006, dated 2016)
